Test results taken from paper PMC12952245 (Cancer, 2025).

Assays:
[1] = Irinotecan and metabolites plasma pharmacokinetics (LC-MS/MS, noncompartmental)
Experimental: (§1) Berzosertib plasma protein binding was assessed in vitro using rapid equilibrium dialysis (RED) devices (Thermo Fisher Scientific, Waltham, Massachusetts).
(§2) Plasma pharmacokinetic parameters were derived from the data by noncompartmental methods with WinNonlin (Certara). Statistical analyses for pharmacokinetic parameter values were performed using SPSS 27.0 for Windows (SPSS Inc, Chicago, Illinois).

[2] = Berzosertib plasma protein binding in vitro, rapid equilibrium dialysis; type: in vitro ADME; conditions: human plasma, 300 – 100,000 µg/L tested
p-Chk1 = conditions: reported value, no reference given; cited from earlier work
[3] = parameters: method as in PMID 32568634; conditions: highest dose level 240 mg/m^2 once or twice weekly; cited from earlier work
[4] = tested on: patients with advanced solid tumors; assay: Phase 1 safety of berzosertib plus irinotecan: treatment-related adverse events (CTCAE v5.0), DLT, MTD/RP2D; type: in vivo
Experimental: Berzosertib was supplied under a Collaborative Research and Development Agreement among NCI, Vertex Pharmaceuticals, and EMD Serono. Irinotecan was obtained from commercial sources.
Treatment cycles were 28 days long (Supporting Information S1: Figure S1).
A history and physical examination were conducted at baseline and before each cycle. Complete blood counts and serum chemistries were performed at baseline and weekly during C1 and every 2 weeks thereafter. Toxicities were graded using NCI Common Terminology Criteria for Adverse Events (version 5.0) and defined as adverse events that were possibly, probably, or definitely related to treatment. Radiographic evaluation was performed at baseline and every 8 weeks for tumor response based on Response Evaluation Criteria in Solid Tumors (RECIST) version 1.1.
DLs were evaluated using a modified Storer’s up and down design with the plan of enrolling up to 36 evaluable patients during dose escalation (Supporting Information S1: Figure S1).[8] Stage I of the Modified Storer’s up and down design is single patient dose escalation until a DLT is observed. Once a DLT is observed, patients are treated in cohorts of five in stage II of the design. The MTD was defined as the highest DL tested at which ≤20% patients experience dose limiting toxicity (DLT) during C1 of therapy.

clinical = conditions: human, in vivo
Experimental: as §1, §2

[5] = tested on: γH2AX, pS343-NBS1, and pS824-KAP1; assay: Tumor DNA damage signaling, multiplex immunofluorescence of paired biopsies; type: in vivo, human; conditions: 18–22 hours after end of irinotecan infusion (C1D-13), one colon cancer patient; 4% is the assay baseline
From the text: Paired tumor biopsies were collected from patients enrolled in the expansion cohort. […] The staining of FFPE tissue sections used the BOND RX autostainer (Leica Biosystems). For γH2AX and […]-NBS1 analysis, biotin-conjugated γH2AX (clone JBW301; EMD Millipore) and a custom-conjugated […]-NBS1-DIG (clone EP178; Abcam) antibodies were detected with the use of streptavidin labeled with Alexa Fluor 488 and Alexa Fluor 647 custom-conjugated IgG Fraction Monoclonal Mouse Anti-Digoxin antibody, respectively. For […]-KAP1 analysis, anti-[…]-KAP1 antibody (clone EPR5248; Abcam) custom conjugated to dinitrophenol (Molecular Probes, Inc) was detected using Alexa Fluor 488 conjugated anti-dinitrophenyl KLH rabbit polyclonal antibody. In addition, β-catenin antibody custom conjugated to Alexa Fluor 546 was used to define tumor areas in all biomarker analyses. For γH2AX and […]-NBS1 analysis, fluorescent whole slide images were acquired at 20× using Leica's Aperio FL scanner. Images were then analyzed using a custom algorithm build in Definiens Tissue Studio Analysis software (formerly Definiens AG). For […]-KAP1 analysis, whole slide fluorescent images were acquired at 20× using ZEISS Axioscan 7 scanner. Images were analyzed using a custom algorithm in HALO software (Indica Labs).

[6] = tested on: ATM and H2AX phosphorylation in PBMCs; assay: PBMC DNA damage signaling, quasi-quantitative dual multiplexed immunoblot; type: in vivo, human
Experimental: Blood was processed and analysis performed as described.[11]–[13]

[7] = D15, irinotecan 180/150 mg/m^2 with berzosertib (N=41), geometric mean (SD)
[8] = D-14, irinotecan 180 mg/m^2 alone (N=55), geometric mean (SD)
[9] = N=39, with/without berzosertib, geometric mean (SD)
[10] = irinotecan 180 mg/m^2 (N=55), D-14 (alone), geometric mean (SD)

For CCc1c2c(nc3ccc(OC(=O)N4CCC(NCCCCC(=O)O)CC4)cc13)-c1cc3c(c(=O)n1C2)COC(=O)[C@]3(O)CC [APC], the “APC/ IRI AUC Ratio” value [1, 7] was 0.221 (1.96), the “APC/ IRI AUC Ratio” value [1, 8] was 0.196 (1.80) and the “APC/ IRI AUC Ratio, D15/D-14” value [1, 9] was 1.09 (1.50). For the same compound, the “APC AUC0-inf” value ([1]; human, in vivo, 180 mg/m2) was 2.74 (1.92) mg/L•h, the “APC Cmax” value ([1]; human, in vivo, 180 mg/m2) was 201 (1.81) µg/L and the “APC t½” value ([1]; irinotecan 180 mg/m^2 (N=55), day -14 of cycle 1, geometric mean (SD)) was 12.1 (1.3) h.
With CCc1c2c(nc3ccc(O)cc13)-c1cc3c(c(=O)n1C2)COC(=O)[C@]3(O)CC [SN38] the “SN38/ IRI AUC Ratio” value [1, 7] was 0.0282 (1.70), the “SN38/ IRI AUC Ratio” value [1, 8] was 0.0268 (1.56) and the “SN38/ IRI AUC Ratio, D15/D-14” value [1, 9] was 1.07 (1.48). The “90% CI of the AUC ratio (presence/absence of berzosertib)” value ([1]; bioequivalence approach) was “fell within the traditional boundaries of 80%–125%”, the “SN38 AUC ratio D15/D-14, L-90%CI” value ([1]; bioequivalence assessment, lower 90% confidence interval) was 93.6% and the “SN38 AUC ratio D15/D-14, Average BE” value ([1]; bioequivalence assessment, presence/absence of berzosertib) was 106.6%. For the same compound, the “SN38 AUC ratio D15/D-14, U-90%CI” value ([1]; bioequivalence assessment, upper 90% confidence interval) was 121.5%, the “SN38 AUC0-inf” value [1, 10] was 0.38 (1.8) mg/L•h and the “SN38 Cmax” value [1, 10] was 25.0 (1.78) µg/L. For the same compound, the “SN38 t½” value [1, 10] was 19.9 (1.3) h and the “SN38 AUC Ratio D15/D-14” value ([1]; presence/absence of berzosertib, dose-normalized AUC, geometric mean (SD)) was 1.07 (1.7).
For CNCc1ccc(-c2cc(-c3nc(-c4ccc(S(=O)(=O)C(C)C)cc4)cnc3N)on2)cc1 [berzosertib], the “concentration from which the free fraction increased (plasma protein binding)” value [2] is given as “approximately 30 μg/mL”, the “human equivalent p-Chk1 IC50” value (p-Chk1) is given as “approximately 110 ng/mL” and the “dose-limiting toxicities, monotherapy” value [3] is given as “no dose-limiting toxicities”. For the same compound, the “berzosertib exposure (AUC) versus cycle 1 toxicity grade” value ([4]; human, in vivo) was “higher in patients with C1 higher any grade toxicity and higher hematologic grade toxicity”, the “MTD and RP2D, berzosertib dose” value ([4]; with irinotecan 180 mg/m^2, iv every 2 weeks (DL4)) was 270 mg/m^2 and the Cl (clinical) was 24.3 (1.30) L/h/m^2. The Cmax/Dose (clinical) was 4.90 (1.45) µg/L / mg/m^2, the Tmax (clinical) was 0.61 h and the Vss (clinical) was 530 (1.30) L/m^2. For the same compound, the Vz (clinical) was 612 (1.31) L/m^2, the AUC(0-inf) (clinical; 60 mg/m2) was 2330 ng·h/mL and the Cl (clinical; 60 mg/m2) was 25.7 (-) L/h/m^2. The Cmax (clinical; 60 mg/m2) was 343 ng/mL, the Cmax/Dose (clinical; 60 mg/m2) was 5.72 (-) µg/L / mg/m^2 and the Tmax (clinical; 60 mg/m2) was 0.45 h. For the same compound, the Vss (clinical; 60 mg/m2) was 459 (-) L/m^2, the half-life (clinical; 60 mg/m2) was 14.4 h and the AUC(0-inf) (clinical; 120 mg/m2) was 4190 ng·h/mL. For the same compound, the Cl (clinical; 120 mg/m2) was 28.7 (1.40) L/h/m^2, the Cmax (clinical; 120 mg/m2) was 535 ng/mL and the Tmax (clinical; 120 mg/m2) was 0.54 h. For the same compound, the half-life (clinical; 120 mg/m2) was 14.1 h, the AUC(0-inf) (clinical; 180 mg/m2) was 8550 ng·h/mL and the Cl (clinical; 180 mg/m2) was 21.1 (1.20) L/h/m^2. The Cmax (clinical; 180 mg/m2) was 1060 ng/mL, the Cmax/Dose (clinical; 180 mg/m2) was 5.92 (1.44) µg/L / mg/m^2 and the Tmax (clinical; 180 mg/m2) was 0.66 h. The Vss (clinical; 180 mg/m2) was 422 (1.37) L/m^2, the half-life (clinical; 180 mg/m2) was 16.1 h and the AUC(0-inf) (clinical; 270 mg/m2) was 11000 ng·h/mL. The Cl (clinical; 270 mg/m2) was 24.6 (1.30) L/h/m^2, the Cmax (clinical; 270 mg/m2) was 1260 ng/mL and the Cmax/Dose (clinical; 270 mg/m2) was 4.67 (1.46) µg/L / mg/m^2. For the same compound, the Tmax (clinical; 270 mg/m2) was 0.61 h, the Vss (clinical; 270 mg/m2) was 578 (1.24) L/m^2 and the half-life (clinical; 270 mg/m2) was 18.8 h. For the same compound, the half-life (clinical; iv) was roughly 17 h, the total clearance (clinical; iv) was 24 L/h/m^2 and the volume of distribution (clinical; iv) was “approximately 530 L/m^2”.
In the case of CCc1c2c(nc3ccc(OC(=O)N4CCC(N5CCCCC5)CC4)cc13)-c1cc3c(c(=O)n1C2)COC(=O)[C@]3(O)CC [irinotecan], the “γH2AX and pNBS1 in tumor biopsy” value [5] is reported as > 4 % nuclear area positive (NAP), the “MTD and RP2D, irinotecan dose” value ([4]; with berzosertib 270 mg/m^2, iv every 2 weeks (DL4)) is reported as 180 mg/m^2 and the “induction of H2AX phosphorylation in PBMCs” value ([6]; 4 hours 30 minutes, returned to baseline by 24 hours) is reported as 10 fold. For the same compound, the “induction of ATM in PBMCs” value ([6]; irinotecan alone (C1D-14)) was “no induction of ATM”, the AUC(0-inf) ([1]; human, in vivo, 180 mg/m2) was 14000 ng·h/mL and the Cmax ([1]; human, in vivo, 180 mg/m2) was 2180 ng/mL.
